According to patent US11472799B2, “Serine threonine kinase (AKT) degradation / disruption compounds and methods of use” (Icahn School of Medicine at Mount Sinai, priority 2018, dated 2022):

Legend:
AKT [1] = assay: Time course Western blot of AKT degradation in BT474 cells; type: cell-based, human
Method: (§1) Cells were lysed in 2× sample buffer (125 mM Tris-HCl at pH 6.8, 10% βME, 2% SDS, 20% glycerol, 0.05% Bromophenol Blue, 8 M urea). Protein lysates were loaded into 4-12% Bis-Tris gels and resolved by electrophoresis. Samples were then blotted on PVDF membrane (Millipore IPVH00010) using the wet transfer technique (Invitrogen). Membranes were blocked in 5% milk-TBST for 1 hour, washed in TBST for 10 min, and incubated in primary antibody in 5% milk-TBST or 5% BSA-TBST at 4° C. for 16 h. Membranes were rinsed (3×6 min) in TBST and incubated in horseradish peroxidase-conjugated secondary antibodies in 5% milk-TBST for 1 hour and rinsed again in TBST (3×6 min). Membranes were visualized using the chemiluminescence system (Thermo 34080, 37075) on autoradiography film (Denville E3018). Primary Antibodies: R-actin (Sigma A5316), p-AKT (Ser473 CST-9721), total AKT (CST-9272), p-S6 (Ser240/244, CST-5364), p-PRAS40 (Thr246, CST-2997). Secondary Antibodies: Mouse (Thermo 31432), Rabbit (Thermo 31460).

AKT [2] = assay: Western blot of AKT protein levels in PC-3 cells; type: cell-based, human; conditions: 1 μM (FIGS. 11 and 12)
Method: PC-3, U87MG, HCC1143, MDA-MB-231, MDA-MB-468, BT474 and MCF-7 cell lines were purchased from ATCC. Cell lines were regularly tested in the lab for mycoplasma. All cells were cultured at 37° C. and 5% CO2. PC-3, U87MG, MDA-MB-231, MCF-7 and BT474 cells were cultured in 1×DMEM (Corning, 10-013-CV) with 10% fetal bovine serum (Atlanta Biologicals S11150) and 1× Penicillin/Streptomycin. HCC1143 cells were cultured in RPMI (Corning, 10-040-CV) medium with 10% fetal bovine serum (Atlanta Biologicals S11150) and 1× Penicillin/Streptomycin. Cells were split using 0.05% or 0.25% trypsin (Corning 25-051-Cl or 25-053-Cl, respectively) before they reached full confluence and media was changed every 3-4 days. Cells were treated with compounds individually at different concentrations for 24 hrs. Cells were treated with DMSO, VHL, or PML alone as controls.
as §1

Structure (SMILES) | time point for the most significant AKT degradation (AKT [1]; BT474 cells (FIGS. 2 and 5)) [h] | time-dependent reduction of AKT, p-AKT, P-PRAS40 (T246), and P-S6 (S240/244) protein levels (AKT [1]; BT474 cells, 1 μM) | suppression of AKT protein level and AKT activity (AKT [2])
Cc1ncsc1-c1ccc([C@H](C)NC(=O)[C@@H]2C[C@@H](O)CN2C(=O)[C@@H](NC(=O)CCCCCCCCCCNC(=O)CCNC[C@@H](C(=O)N2CCN(c3ncnc4c3[C@H](C)C[C@H]4O)CC2)c2ccc(Cl)cc2)C(C)(C)C)cc1 [XF042-162, (2S,4R)-1-((S)-2-(11-(3-(((S)-2-(4-chlorophenyl)-3-(4-((5R,7R)-7-hydroxy-5-methyl-6,7-dihydro-5H-cyclopenta[d]pyrimidin-4-yl)piperazin-1-yl)-3-oxopropyl)amino)propanamido)undecanamido)-3,3-dimethylbutanoyl)-4-hydroxy-N-((S)-1-(4-(4-methylthiazol-5-yl)phenyl)ethyl)pyrrolidine-2-carboxamide] | 24 | time-dependently reduce | –
Cc1ncsc1-c1ccc(CNC(=O)[C@@H]2C[C@@H](O)CN2C(=O)[C@@H](NC(=O)CCCCCCCCCCNC(=O)CCc2cccc(-c3ccc4nc(-c5cccnc5N)n(-c5ccc(C6(N)CCC6)cc5)c4n3)c2)C(C)(C)C)cc1 [XF067-18, (2S,4R)-1-((S)-2-(11-(3-(3-(3-(4-(1-aminocyclobutyl)phenyl)-2-(2-aminopyridin-3-yl)-3H-imidazo[4,5-b]pyridin-5-yl)phenyl)propanamido)undecanamido)-3,3-dimethylbutanoyl)-4-hydroxy-N-(4-(4-methylthiazol-5-yl)benzyl)pyrrolidine-2-carboxamide] | – | – | effective in suppressing AKT protein level and AKT activity
Cc1ncsc1-c1ccc(CNC(=O)[C@@H]2C[C@@H](O)CN2C(=O)[C@@H](NC(=O)CCCCCCC(=O)NCCc2cccc(-c3ccc4nc(-c5cccnc5N)n(-c5ccc(C6(N)CCC6)cc5)c4n3)c2)C(C)(C)C)cc1 [XF067-44, N^1-(3-(3-(4-(1-aminocycIobutyl)phenyl)-2-(2-aminopyridin-3-yl)-3H-imidazo[4,5-b]pyridin-5-yl)phenethyl)-N^8-((S)-1-((2S,4R)-4-hydroxy-2-((4-(4-methylthiazol-5-yl)benzyl)carbamoyl)pyrrolidin-1-yl)-3,3-dimethyl-1-oxobutan-2-yl)octanediamide] | – | – | effective in suppressing AKT protein level and AKT activity
Cc1ncsc1-c1ccc(CNC(=O)[C@@H]2C[C@@H](O)CN2C(=O)[C@@H](NC(=O)CCCCCCCC(=O)NCCc2cccc(-c3ccc4nc(-c5cccnc5N)n(-c5ccc(C6(N)CCC6)cc5)c4n3)c2)C(C)(C)C)cc1 [XF067-45, N^1-(3-(3-(4-(1-aminocyclobutyl)phenyl)-2-(2-aminopyridin-3-yl)-3H-imidazo[4,5-b]pyridin-5-yl)phenethyl)-N^9-((S)-1-((2S,4R)-4-hydroxy-2-((4-(4-methylthiazol-5-yl)benzyl)carbamoyl)pyrrolidin-1-yl)-3,3-dimethyl-1-oxobutan-2-yl)nonanediamide] | – | – | effective in suppressing AKT protein level and AKT activity
Cc1ncsc1-c1ccc(CNC(=O)[C@@H]2C[C@@H](O)CN2C(=O)[C@@H](NC(=O)CCCCCCCCC(=O)NCCc2cccc(-c3ccc4nc(-c5cccnc5N)n(-c5ccc(C6(N)CCC6)cc5)c4n3)c2)C(C)(C)C)cc1 [XF067-46, N^1-(3-(3-(4-(1-aminocyclobutyl)phenyl)-2-(2-aminopyridin-3-yl)-3H-imidazo[4,5-b]pyridin-5-yl)phenethyl)-N^10-((S)-1-((2S,4R)-4-hydroxy-2-((4-(4-methylthiazol-5-yl)benzyl)carbamoyl)pyrrolidin-1-yl)-3,3-dimethyl-1-oxobutan-2-yl)decanediamide] | – | – | effective in suppressing AKT protein level and AKT activity
Cc1ncsc1-c1ccc(CNC(=O)[C@@H]2C[C@@H](O)CN2C(=O)[C@@H](NC(=O)CCCCCCCCCC(=O)NCCc2cccc(-c3ccc4nc(-c5cccnc5N)n(-c5ccc(C6(N)CCC6)cc5)c4n3)c2)C(C)(C)C)cc1 [XF067-47, N^1-(3-(3-(4-(1-aminocyclobutyl)phenyl)-2-(2-aminopyridin-3-yl)-3H-imidazo[4,5-b]pyridin-5-yl)phenethyl)-N^11-((S)-1-((2S,4R)-4-hydroxy-2-((4-(4-methylthiazol-5-yl)benzyl)carbamoyl)pyrrolidin-1-yl)-3,3-dimethyl-1-oxobutan-2-yl)undecanediamide] | – | – | effective in suppressing AKT protein level and AKT activity
CCn1c(-c2nonc2N)nc2c(C#CC(C)(C)O)ncc(OCCCNCCCC(=O)NCCCCCCCC(=O)N[C@H](C(=O)N3C[C@H](O)C[C@H]3C(=O)NCc3ccc(-c4scnc4C)cc3)C(C)(C)C)c21 [XF067-98, (2S,4R)-1-((S)-2-(8-(4-((3-((2-(4-amino-1,2,5-oxadiazol-3-yl)-1-ethyl-4-(3-hydroxy-3-methylbut-1-yn-1-yl)-1H-imidazo[4,5-c]pyridin-7-yl)oxy)propyl)amino)butanamido)octanamido)-3,3-dimethylbutanoyl)-4-hydroxy-N-(4-(4-methylthiazol-5-yl)benzyl)pyrrolidine-2-carboxamide] | – | – | effective in suppressing AKT protein level and AKT activity
CCn1c(-c2nonc2N)nc2c(C#CC(C)(C)O)ncc(OCCCNCCCC(=O)NCCCCCCCCC(=O)N[C@H](C(=O)N3C[C@H](O)C[C@H]3C(=O)NCc3ccc(-c4scnc4C)cc3)C(C)(C)C)c21 [XF067-99, (2S,4R)-1-((S)-2-(9-(4-((3-((2-(4-amino-1,2,5-oxadiazol-3-yl)-1-ethyl-4-(3-hydroxy-3-methylbut-1-yn-1-yl)-1H-imidazo[4,5-c]pyridin-7-yl)oxy)propyl)amino)butanamido)nonanamido)-3,3-dimethylbutanoyl)-4-hydroxy-N-(4-(4-methylthiazol-5-yl)benzyl)pyrrolidine-2-carboxamide] | – | – | effective in suppressing AKT protein level and AKT activity
CCn1c(-c2nonc2N)nc2c(C#CC(C)(C)O)ncc(OCCCNCCCC(=O)NCCCCCCCCCC(=O)N[C@H](C(=O)N3C[C@H](O)C[C@H]3C(=O)NCc3ccc(-c4scnc4C)cc3)C(C)(C)C)c21 [XF067-100, (2S,4R)-1-((S)-2-(10-(4-((3-((2-(4-amino-1,2,5-oxadiazol-3-yl)-1-ethyl-4-(3-hydroxy-3-methylbut-1-yn-1-yl)-1H-imidazo[4,5-c]pyridin-7-yl)oxy)propyl)amino)butanamido)decanamido)-3,3-dimethylbutanoyl)-4-hydroxy-N-(4-(4-methylthiazol-5-yl)benzyl)pyrrolidine-2-carboxamide] | – | – | effective in suppressing AKT protein level and AKT activity
CCn1c(-c2nonc2N)nc2c(C#CC(C)(C)O)ncc(OCCCNCCCC(=O)NCCCCCCCCCCC(=O)N[C@H](C(=O)N3C[C@H](O)C[C@H]3C(=O)NCc3ccc(-c4scnc4C)cc3)C(C)(C)C)c21 [XF067-101, (2S,4R)-1-((S)-2-(11-(4-((3-((2-(4-amino-1,2,5-oxadiazol-3-yl)-1-ethyl-4-(3-hydroxy-3-methylbut-1-yn-1-yl)-1H-imidazo[4,5-c]pyridin-7-yl)oxy)propyl)amino)butanamido)undecanamido)-3,3-dimethylbutanoyl)-4-hydroxy-N-(4-(4-methylthiazol-5-yl)benzyl)pyrrolidine-2-carboxamide] | – | – | effective in suppressing AKT protein level and AKT activity
CCn1c(-c2nonc2N)nc2c(C#CC(C)(C)O)ncc(OCCCNCCCC(=O)NCCCCCCCNc3cccc4c3C(=O)N(C3CCC(=O)NC3=O)C4=O)c21 (stereo not shown) [XF067-112, 4-((3-((2-(4-amino-1,2,5-oxadiazol-3-yl)-1-ethyl-4-(3-hydroxy-3-methylbut-1-yn-1-yl)-1H-imidazo[4,5-c]pyridin-7-yl)oxy)propyl)amino)-N-(7-((2-(2,6-dioxopiperidin-3-yl)-1,3-dioxoisoindolin-4-yl)amino)heptyl)butanamide] | – | – | effective in suppressing AKT protein level and AKT activity
CCn1c(-c2nonc2N)nc2c(C#CC(C)(C)O)ncc(OCCCNCCCC(=O)NCCCCCCCCNc3cccc4c3C(=O)N(C3CCC(=O)NC3=O)C4=O)c21 (stereo not shown) [XF067-113, 4-((3-((2-(4-amino-1,2,5-oxadiazol-3-yl)-1-ethyl-4-(3-hydroxy-3-methylbut-1-yn-1-yl)-1H-imidazo[4,5-c]pyridin-7-yl)oxy)propyl)amino)-N-(8-((2-(2,6-dioxopiperidin-3-yl)-1,3-dioxoisoindolin-4-yl)amino)octyl)butanamide] | – | – | effective in suppressing AKT protein level and AKT activity
